These results are taken from patent US20080171710A1, “The Redox/Fyn/c-Cbl Pathway” (priority 2007, published 2008).

Each structure is given as a SMILES string.

In experiment [1] the test system is O-2A/OPCs. Briefly: In vitro BrdU incorporation assay. Format: cell-based, rat. The note with it: together with MeHg. An outline of the steps: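 Surface antigens stained on live or 2% paraformaldehyde-fixed cells; intracellular ones after ice-cold methanol (4 min) or 0.5% Triton (15 min). Fluorescent secondary antibodies applied for 20 min.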
Experiment [2] addresses Rho kinase (Rattus norvegicus, UniProt Q63644). To be noted: concentration of Y27632 used in O-2A/OPCs. On the procedure:
Rho kinase activity was quantified using the CycLex Rho-Kinase Assay kit (MBL international, Woburn, Mass., United States) as described. Cells were lysed and about 500 μg of total cell Jysates were immunoprecipitated with anti-ROCK1 antibody (Sigma), and the precipitates were re-suspended with kinase reaction buffer provided in the kit. Rho kinase activities of each sample were assayed using the kit according to the manufacturer's instructions.

Chain of Rho kinase (Q63644 whole entry): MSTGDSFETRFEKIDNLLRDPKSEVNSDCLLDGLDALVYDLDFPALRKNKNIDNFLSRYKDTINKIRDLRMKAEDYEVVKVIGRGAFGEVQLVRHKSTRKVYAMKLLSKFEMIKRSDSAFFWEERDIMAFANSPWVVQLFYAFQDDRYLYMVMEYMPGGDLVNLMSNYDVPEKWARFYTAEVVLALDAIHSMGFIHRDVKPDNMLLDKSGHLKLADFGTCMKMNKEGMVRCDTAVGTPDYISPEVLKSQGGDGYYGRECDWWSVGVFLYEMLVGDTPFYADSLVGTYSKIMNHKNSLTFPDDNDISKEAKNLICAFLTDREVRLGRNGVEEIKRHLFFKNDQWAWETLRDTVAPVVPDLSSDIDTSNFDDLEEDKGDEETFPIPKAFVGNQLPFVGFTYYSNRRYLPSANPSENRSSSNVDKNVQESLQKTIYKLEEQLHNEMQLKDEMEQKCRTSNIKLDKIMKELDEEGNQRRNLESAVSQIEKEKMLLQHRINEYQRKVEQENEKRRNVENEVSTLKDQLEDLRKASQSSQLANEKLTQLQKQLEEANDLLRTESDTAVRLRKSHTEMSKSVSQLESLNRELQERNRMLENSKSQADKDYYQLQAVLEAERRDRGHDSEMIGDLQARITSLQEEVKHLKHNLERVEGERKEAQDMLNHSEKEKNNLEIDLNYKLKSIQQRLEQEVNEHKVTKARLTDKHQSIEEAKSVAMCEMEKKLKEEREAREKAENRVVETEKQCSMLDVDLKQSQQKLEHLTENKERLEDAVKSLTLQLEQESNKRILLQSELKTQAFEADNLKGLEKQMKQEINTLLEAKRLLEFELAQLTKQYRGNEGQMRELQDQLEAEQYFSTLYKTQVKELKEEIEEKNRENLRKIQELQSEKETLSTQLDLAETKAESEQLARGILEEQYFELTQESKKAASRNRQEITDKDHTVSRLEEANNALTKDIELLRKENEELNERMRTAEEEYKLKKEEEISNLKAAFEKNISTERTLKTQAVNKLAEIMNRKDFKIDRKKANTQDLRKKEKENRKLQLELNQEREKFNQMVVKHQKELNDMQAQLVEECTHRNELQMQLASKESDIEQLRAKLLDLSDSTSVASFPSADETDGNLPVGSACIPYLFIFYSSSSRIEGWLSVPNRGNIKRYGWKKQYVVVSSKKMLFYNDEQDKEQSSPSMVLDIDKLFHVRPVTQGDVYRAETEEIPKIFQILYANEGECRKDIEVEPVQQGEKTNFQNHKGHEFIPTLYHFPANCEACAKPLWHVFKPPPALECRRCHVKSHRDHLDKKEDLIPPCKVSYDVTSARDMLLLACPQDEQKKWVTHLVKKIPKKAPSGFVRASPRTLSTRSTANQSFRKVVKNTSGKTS

On to `C[C@@H](N)[C@H]1CC[C@H](C(=O)Nc2ccncc2)CC1` [Y27632], for which, in experiment [1], the “effect on MeHg-associated suppression of BrdU incorporation / cell division” value is reported as “did not alter”. Besides, the Rho kinase activity entry in experiment [2] was “successfully inhibited”.
